“And” between values parts separate entries of the source, which are not always exact repeats. Equal entries are not always repeated. Records with an inconclusive call do not appear.
System: MX-1 breast xenograft, nude mice, tumor weight T/C
Test: NCI In Vivo Anticancer Drug Screen. Data for tumor model Human Mammary Carcinoma MX-1 Xenograft (intrarenal inoculation) in NU/NU Swiss (nude) mice
Settings: endpoint: mean tumor weight change, higher = larger tumour
Outline: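 Antitumour effect measured in vivo against vehicle controls, expressed as T/C.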

[1] = dose: 75.0 mg/kg/injection, schedule: Q04DX003 (sc), vehicle: water
[2] = dose: 150.0 mg/kg/injection, schedule: Q04DX003 (sc), vehicle: water
[3] = dose: 300.0 mg/kg/injection, schedule: Q04DX003 (sc), vehicle: water
[4] = dose: 200.0 mg/kg/injection, schedule: Q04DX003 (sc), vehicle: water
[5] = dose: 400.0 mg/kg/injection, schedule: Q04DX003 (sc), vehicle: water
[6] = dose: 300.0 mg/kg/injection, schedule: Q04DX003 (sc), vehicle: Klucel (hydroxypropylcellulose) (HPC)
[7] = dose: 600.0 mg/kg/injection, schedule: Q04DX003 (sc), vehicle: Klucel (hydroxypropylcellulose) (HPC)
[8] = dose: 1200.0 mg/kg/injection, schedule: Q04DX003 (sc), vehicle: Klucel (hydroxypropylcellulose) (HPC)
[9] = dose: 300.0 mg/kg/injection, schedule: Q04DX003 (sc), vehicle: saline with Tween-80
[10] = dose: 600.0 mg/kg/injection, schedule: Q04DX003 (sc), vehicle: saline with Tween-80
[11] = dose: 1200.0 mg/kg/injection, schedule: Q04DX003 (sc), vehicle: saline with Tween-80

`O=C(Nc1ccc(C2=NCCN2)cc1)c1ccc(C(=O)Nc2ccc(C3=NCCN3)cc2)c(Cl)c1` was tested, and the T/C [1] was 81 % of control, the T/C [2] was 49 % of control and the T/C [3] was 21 % of control.

For `NC(=O)/C=C/c1c[nH]c2nccnc12`, the T/C (dose: 25.0 mg/kg/injection, schedule: Q04DX003 (sc), vehicle: water) was 98 % of control and the T/C (dose: 50.0 mg/kg/injection, schedule: Q04DX003 (sc), vehicle: water) was 46 % of control.

For `O=C1CN(CO)C(=O)N1CO`, the T/C (dose: 100.0 mg/kg/injection, schedule: Q04DX003 (ip), vehicle: saline) was 93 % of control, the T/C (dose: 200.0 mg/kg/injection, schedule: Q04DX003 (ip), vehicle: saline) was 67 % of control and the T/C (dose: 400.0 mg/kg/injection, schedule: Q04DX003 (ip), vehicle: saline) was 28 % of control.

With `C/C=C/c1cc2c(c(=O)o1)C(=O)[C@@H](O)[C@H](C)O2` the T/C (dose: 50.0 mg/kg/injection, schedule: Q04DX003 (sc), vehicle: saline with Tween-80) was 114 % of control, the T/C (dose: 100.0 mg/kg/injection, schedule: Q04DX003 (sc), vehicle: saline with Tween-80) was 93 % of control and the T/C (dose: 200.0 mg/kg/injection, schedule: Q04DX003 (sc), vehicle: saline with Tween-80) was 101 % of control.

`Nc1cc(Cl)c2[nH]cnc2n1` was tested, and the T/C [4] was 47 % of control, the T/C [5] was 42 % of control and the T/C (dose: 800.0 mg/kg/injection, schedule: Q04DX003 (sc), vehicle: water) was 55 % of control.

For `c1csc(C[N+]23CN4CN(CN(C4)C2)C3)c1`, the T/C (dose: 100.0 mg/kg/injection, schedule: Q04DX003 (sc), vehicle: saline) was 108 % of control and the T/C (dose: 400.0 mg/kg/injection, schedule: Q04DX003 (sc), vehicle: saline) was 93 % of control.

With `O=C(CC(=O)C(F)(F)F)c1csc2ccccc12` the T/C [6] was 87 % of control, the T/C [7] was 91 % of control and the T/C [8] was 111 % of control. The T/C (dose: 2400.0 mg/kg/injection, schedule: Q04DX003 (sc), vehicle: Klucel (hydroxypropylcellulose) (HPC)) was 99 % of control.

In the case of `O=C1c2c(O)cccc2-c2nn(CCNCCO)c3ccc(NCCNCCO)c1c23`, the T/C (dose: 11.0 mg/kg/injection, schedule: Q04DX003 (ip), vehicle: water) is reported as -100 % of control.

With `COc1cc2cc(c1Cl)N(C)C(=O)CC(OC(=O)CC(C)C)C1(C)OC1C(C)C1CC(O)(NC(=O)O1)C(OC)/C=C/C=C(C)C2` (stereo not drawn) the T/C (dose: 25.0 micrograms/kg/injection, schedule: Q01DX010 (sc), vehicle: saline + alcohol) was -12 % of control and the T/C (dose: 100.0 micrograms/kg/injection, schedule: Q01DX010 (sc), vehicle: saline + alcohol) was -54 % of control.

`Nc1nc(=S)c2ncn(C3CC(O)C(CO)O3)c2[nH]1` (stereo not drawn) was tested, and the T/C (dose: 0.94 mg/kg/injection, schedule: Q04DX003 (sc), vehicle: saline with Tween-80) was 97 % of control, the T/C (dose: 1.88 mg/kg/injection, schedule: Q04DX003 (sc), vehicle: saline with Tween-80) was 81 % of control and the T/C (dose: 3.75 mg/kg/injection, schedule: Q04DX003 (sc), vehicle: saline with Tween-80) was 97 % of control. For the same compound, the T/C (dose: 7.5 mg/kg/injection, schedule: Q04DX003 (sc), vehicle: saline with Tween-80) was 87 % of control, the T/C (dose: 50.0 mg/kg/injection, schedule: Q01DX010 (sc), vehicle: Klucel (hydroxypropylcellulose) (HPC)) was 64 % of control and the T/C (dose: 100.0 mg/kg/injection, schedule: Q01DX010 (sc), vehicle: Klucel (hydroxypropylcellulose) (HPC)) was 122 % of control.

For `COC1=C(N)C(=O)c2nc(-c3nc(C(=O)O)c(C)c(-c4ccc(OC)c(OC)c4O)c3N)ccc2C1=O`, the T/C (dose: 0.13 mg/kg/injection, schedule: Q01DX010 (sc), vehicle: saline) was 15 % of control and 18 % of control and the T/C (dose: 0.5 mg/kg/injection, schedule: Q01DX010 (sc), vehicle: saline) was -77 % of control and -75 % of control.

For `O=P1(NCCCl)OCCCN1CCCl` (stereo not drawn), the T/C (dose: 150.0 mg/kg/injection, schedule: Q04DX003 (sc), vehicle: saline) was -95 % of control and -100 % of control and the T/C (dose: 300.0 mg/kg/injection, schedule: Q04DX003 (sc), vehicle: saline) was -100 % of control.

With `O=C1C=C(C2OC(CO)C(O)C2O)C(=O)N1` (stereo not drawn) the T/C (dose: 6.25 mg/kg/injection, schedule: Q01DX010 (sc), vehicle: saline) was 79 % of control and the T/C (dose: 12.5 mg/kg/injection, schedule: Q01DX010 (sc), vehicle: saline) was 123 % of control.

In the case of `CC(=O)OCC1OC(n2ncc(=O)[nH]c2=O)C(OC(C)=O)C1OC(C)=O` (stereo not drawn), the T/C (dose: 150.0 mg/kg/injection, schedule: Q04DX003 (sc), vehicle: suspension in saline) is reported as 67 % of control, the T/C (dose: 300.0 mg/kg/injection, schedule: Q04DX003 (sc), vehicle: suspension in saline) is reported as 112 % of control and the T/C (dose: 600.0 mg/kg/injection, schedule: Q04DX003 (sc), vehicle: suspension in saline) is reported as 78 % of control.

For `CC12CC(C(=O)O)C3(O)CC(C)(C1)CC(C)(C2)C3` (stereo not drawn) (tested in a mixture with another compound), the T/C [6] was 87 % of control, the T/C [7] was 168 % of control and the T/C [8] was 102 % of control.

In the case of `CC(=O)Oc1c(C)[nH]ccc1=O`, the T/C (dose: 200.0 mg/kg/injection, schedule: Q04DX003 (sc), vehicle: suspension in saline) is reported as 72 % of control, the T/C (dose: 400.0 mg/kg/injection, schedule: Q04DX003 (sc), vehicle: suspension in saline) is reported as 87 % of control and the T/C (dose: 800.0 mg/kg/injection, schedule: Q04DX003 (sc), vehicle: suspension in saline) is reported as 79 % of control.

In the case of `CCN(CC)CC[n+]1ccc2c(C)c3[nH]c4ccc(O)cc4c3c(C)c2c1`, the T/C (dose: 12.5 mg/kg/injection, schedule: Q04DX003 (sc), vehicle: suspension in saline) is reported as 82 % of control and the T/C (dose: 25.0 mg/kg/injection, schedule: Q04DX003 (sc), vehicle: suspension in saline) is reported as 77 % of control.

`CCCNC1=C(C)C(=O)C2=C(C1=O)[C@H](COC(N)=O)[C@]1(OC)[C@@H]3N[C@@H]3CN21` was tested, and the T/C (dose: 6.0 mg/kg/injection, schedule: Q04DX003 (sc), vehicle: suspension in saline) was 1 % of control and the T/C (dose: 12.0 mg/kg/injection, schedule: Q04DX003 (sc), vehicle: suspension in saline) was -83 % of control.

With `CC(=O)NC(C=O)OCC=O` (stereo not drawn) the T/C (dose: 100.0 mg/kg/injection, schedule: Q04DX003 (sc), vehicle: water) was 108 % of control, the T/C [4] was 72 % of control and the T/C [5] was 91 % of control.

For `COc1cc(NCc2ccc3nc(N)nc(N)c3c2C)cc(OC)c1OC`, the T/C (dose: 1.25 mg/kg/injection, schedule: Q01DX010 (sc), vehicle: sodium bicarbonate) was 70 % of control, the T/C (dose: 2.5 mg/kg/injection, schedule: Q01DX010 (sc), vehicle: sodium bicarbonate) was 46 % of control and the T/C (dose: 20.0 mg/kg/injection, schedule: Q01DX010 (sc), vehicle: sodium bicarbonate) was 97 % of control. For the same compound, the T/C [1] was 115 % of control, the T/C [2] was 108 % of control and the T/C [3] was 112 % of control.

With `CN=C(N)N/N=C(\C)c1ccc2c(c1)Cc1ccccc1-2` the T/C (dose: 150.0 mg/kg/injection, schedule: Q04DX003 (sc), vehicle: saline with Tween-80) was 105 % of control, the T/C [9] was 115 % of control and the T/C [10] was 105 % of control. For the same compound, the T/C [11] was 191 % of control.

For `CSC1SCC2C(=O)N(C)C(C(C)C)C(=O)OCC(NC(=O)c3cnc4ccccc4n3)C(=O)NC(C)C(=O)N(C)C1C(=O)N(C)C(C(C)C)C(=O)OCC(NC(=O)c1cnc3ccccc3n1)C(=O)NC(C)C(=O)N2C` (stereo not drawn), the T/C (dose: 60.0 micrograms/kg/injection, schedule: Q01DX010 (sc), vehicle: saline) was 109 % of control, the T/C (dose: 120.0 micrograms/kg/injection, schedule: Q01DX010 (sc), vehicle: saline) was 87 % of control and the T/C (dose: 240.0 micrograms/kg/injection, schedule: Q01DX010 (sc), vehicle: saline) was 40 % of control.

`COC1=CCC23C(=O)C=CC(=O)C2(C1)C(=O)c1ccccc1C3=O` (stereo not drawn) was tested, and the T/C (dose: 37.5 mg/kg/injection, schedule: Q04DX003 (ip), vehicle: saline with Tween-80) was 109 % of control.

For `COCCCNC1=C(C#N)C(=O)NC(c2cccc([N+](=O)[O-])c2)S1` (stereo not drawn), the T/C [9] was 96 % of control, the T/C [10] was 101 % of control and the T/C [11] was 56 % of control. For the same compound, the T/C (dose: 2400.0 mg/kg/injection, schedule: Q04DX003 (sc), vehicle: saline with Tween-80) was 95 % of control.

In the case of `COc1cc2c(c(OC)c1OC)-c1c(cc3c(c1OC)OCO3)CC(C)C(C)(O)C2OC(=O)c1ccccc1` (stereo not drawn), the T/C (dose: 300.0 mg/kg/injection, schedule: Q04DX003 (sc), vehicle: saline + alcohol) is reported as 68 % of control, the T/C (dose: 600.0 mg/kg/injection, schedule: Q04DX003 (sc), vehicle: saline + alcohol) is reported as 82 % of control and the T/C (dose: 1200.0 mg/kg/injection, schedule: Q04DX003 (sc), vehicle: saline + alcohol) is reported as 79 % of control. The T/C (dose: 2400.0 mg/kg/injection, schedule: Q04DX003 (sc), vehicle: saline + alcohol) was 88 % of control.

Reference: PubChem BioAssay AID296 (DTP/NCI, 2004)
